≈ marks a conversion by molar mass, not a printed value. Like-named read-outs stand apart in the source and are kept apart here. Numbered stars: 1 amine (or outer) side, 2 acyl side, 3 side chain; on linkers, the order of the positions; unused ones are H or OH. Bridge positions count the residues as written; N and C are the ends. Square brackets hold non-standard residues; d marks the D form. Primed or numbered codes have the meaning given here. Ends that are not written are not given here. Peptide text beside a SMILES is read from it. MB = Monomer B = PyrS, Alloc-pyrrolidine stapling residue (allyl carbamate on pyrrolidine N); dαMeDab(Me) = CN(CC[C@@](C)(N[*:1])C(=O)[*:2])[*:3]; X1 = O=C([C@]1(N[*:1])CCN([*:3])C1)[*:2]; X2 = O=C(OCC=CCOC(=O)[*:2])[*:1]; R8 = C=CCCCCCC[C@@](C)(N)C(=O)O; S5 = C=CCCC[C@](C)(N)C(=O)O; PEG1′ = not defined here
Tests used:
[1] = Solubility in DPBS (A280 of supernatant); format: physicochemical; conditions: DPBS
Outline: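 Dried peptide reconstituted in DPBS in triplicate, vortexed, sonicated and centrifuged. Supernatant A280 measured; concentration calculated using the tryptophan extinction coefficient.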

[2] = target: T1, biotinylated beta-catenin (Homo sapiens, UniProt P35222); assay: Surface Plasmon Resonance (Biacore); format: binding
T1 sequence (P35222 1-781): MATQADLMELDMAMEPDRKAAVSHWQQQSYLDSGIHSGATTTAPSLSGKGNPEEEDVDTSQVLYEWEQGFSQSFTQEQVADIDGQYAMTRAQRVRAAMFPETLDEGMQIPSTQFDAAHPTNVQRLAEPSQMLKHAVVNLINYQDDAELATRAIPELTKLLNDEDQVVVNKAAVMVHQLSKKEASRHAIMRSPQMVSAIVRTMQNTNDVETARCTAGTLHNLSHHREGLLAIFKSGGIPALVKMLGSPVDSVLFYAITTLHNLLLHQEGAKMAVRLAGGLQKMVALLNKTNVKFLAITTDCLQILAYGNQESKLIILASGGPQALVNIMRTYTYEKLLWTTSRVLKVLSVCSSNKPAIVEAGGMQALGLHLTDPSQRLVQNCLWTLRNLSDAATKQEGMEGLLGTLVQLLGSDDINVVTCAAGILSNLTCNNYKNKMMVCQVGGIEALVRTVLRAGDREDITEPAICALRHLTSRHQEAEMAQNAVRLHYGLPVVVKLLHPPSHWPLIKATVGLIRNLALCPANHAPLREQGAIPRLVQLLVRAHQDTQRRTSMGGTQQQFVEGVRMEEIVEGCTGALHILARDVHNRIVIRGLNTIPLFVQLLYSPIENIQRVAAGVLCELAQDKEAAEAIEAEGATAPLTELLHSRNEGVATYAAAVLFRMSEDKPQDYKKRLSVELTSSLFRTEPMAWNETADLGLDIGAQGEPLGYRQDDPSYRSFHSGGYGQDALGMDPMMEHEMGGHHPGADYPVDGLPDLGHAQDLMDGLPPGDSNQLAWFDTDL

[3] = target: T2, full-length beta-catenin (Axin site) (Homo sapiens, UniProt P35222); assay: Competition fluorescence polarization assay (Axin site probe); format: binding; conditions: competition fluorescence polarization, Table 2; read-out: in vitro FP EC50
T2 construct: 15 nM full-length beta-catenin, 20 nM FITC labeled peptide in buffer
T2 sequence (P35222 1-781): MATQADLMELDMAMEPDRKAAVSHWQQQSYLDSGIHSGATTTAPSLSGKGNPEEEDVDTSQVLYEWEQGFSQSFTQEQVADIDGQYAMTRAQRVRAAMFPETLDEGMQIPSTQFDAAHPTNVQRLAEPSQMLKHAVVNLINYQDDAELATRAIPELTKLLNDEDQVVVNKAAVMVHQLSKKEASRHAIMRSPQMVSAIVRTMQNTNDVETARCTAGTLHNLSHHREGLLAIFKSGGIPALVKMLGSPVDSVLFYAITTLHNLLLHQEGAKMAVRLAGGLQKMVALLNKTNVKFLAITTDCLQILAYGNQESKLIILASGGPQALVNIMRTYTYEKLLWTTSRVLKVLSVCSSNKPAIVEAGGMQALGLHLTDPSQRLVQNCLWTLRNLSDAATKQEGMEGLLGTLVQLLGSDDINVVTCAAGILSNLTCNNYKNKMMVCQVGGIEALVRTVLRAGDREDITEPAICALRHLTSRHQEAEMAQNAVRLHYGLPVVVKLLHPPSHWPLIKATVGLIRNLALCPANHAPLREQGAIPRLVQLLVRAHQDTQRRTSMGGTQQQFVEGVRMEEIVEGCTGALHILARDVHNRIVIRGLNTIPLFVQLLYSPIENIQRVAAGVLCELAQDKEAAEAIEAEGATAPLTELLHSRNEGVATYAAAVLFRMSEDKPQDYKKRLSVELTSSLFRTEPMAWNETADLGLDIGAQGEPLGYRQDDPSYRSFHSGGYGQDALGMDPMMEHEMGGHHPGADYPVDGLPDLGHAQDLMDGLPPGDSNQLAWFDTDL
Outline: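 Competition FP: 15 nM full-length β-catenin pre-incubated 5 min with 20 nM FITC-labelled stapled Axin-site peptide, then titrated peptide added (3-fold series from 5 μM) for 15 min in the dark. Buffer 50 mM Tris pH 8.0, 250 mM NaCl, 2% glycerol, 0.5 mM EDTA; duplicate reads.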

Plasma PK in rats = format: in vivo; conditions: IV 0.5 mg/kg, male Sprague-Dawley rats
Method: (§1) FIG. 6. Exemplary pharmacokinetic properties. Peptides were formulated in 10% DMSO:90% saline and dosed by IV at 0.5 mg/kg per compound in three male Sprague-Dawley rats. Serial bleed time-points were taken at 2 min, 6 min, 10 min, 15 min, 30 min, 1, 2, 4, 6, 8, 12 and 24 h and analyzed by quantitative LC/MS using a Thermo Q-Exactive Focus LC/MS/MS. Samples were prepared by protein precipitation with MeOH. Data were fit to a two-compartment model.
as §1, with “Various technologies can be utilized to assess properties of provided agents, e.g., stapled peptides, in accordance with the present disclosure. In some embodiments, plasma PK methods are used to assess” for “FIG. 6. Exemplary”, “In an exemplary assay, peptides” for “Peptides”, “model. […] Exemplary data are presented, e.g., in FIG. 6.” for “model.”

beta-catenin = target: T3, beta-catenin (Homo sapiens, UniProt P35222); conditions: reported in Grossmann et al.; cited from earlier work
T3 sequence (P35222 1-781): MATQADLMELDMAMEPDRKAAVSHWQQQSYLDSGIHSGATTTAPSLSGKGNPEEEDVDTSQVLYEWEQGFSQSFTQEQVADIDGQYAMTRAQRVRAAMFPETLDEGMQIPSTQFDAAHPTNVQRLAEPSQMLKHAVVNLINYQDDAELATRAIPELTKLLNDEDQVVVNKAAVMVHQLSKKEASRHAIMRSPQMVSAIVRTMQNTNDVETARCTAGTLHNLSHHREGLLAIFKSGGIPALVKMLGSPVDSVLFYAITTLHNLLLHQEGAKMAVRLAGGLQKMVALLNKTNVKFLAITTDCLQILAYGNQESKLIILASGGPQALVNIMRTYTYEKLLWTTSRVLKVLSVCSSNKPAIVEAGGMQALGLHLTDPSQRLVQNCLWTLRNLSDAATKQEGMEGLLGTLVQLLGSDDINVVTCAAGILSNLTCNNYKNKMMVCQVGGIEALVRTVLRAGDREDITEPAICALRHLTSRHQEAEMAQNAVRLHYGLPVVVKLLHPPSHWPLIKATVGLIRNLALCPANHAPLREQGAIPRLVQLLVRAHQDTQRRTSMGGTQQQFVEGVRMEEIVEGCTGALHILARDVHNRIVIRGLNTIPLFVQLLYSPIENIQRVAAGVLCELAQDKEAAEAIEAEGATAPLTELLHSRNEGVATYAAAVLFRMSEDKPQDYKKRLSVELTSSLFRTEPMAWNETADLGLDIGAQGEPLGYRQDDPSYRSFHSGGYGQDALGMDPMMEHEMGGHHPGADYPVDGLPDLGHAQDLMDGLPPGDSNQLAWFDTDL

full-length beta-catenin [4] = target: T4, full-length beta-catenin (UniProt P35222 2-781, limits assumed); assay: competition FP; control of Table 5
T4 construct: mature; also called full-length ß-Catenin; β-catenin
T4 sequence (looked up): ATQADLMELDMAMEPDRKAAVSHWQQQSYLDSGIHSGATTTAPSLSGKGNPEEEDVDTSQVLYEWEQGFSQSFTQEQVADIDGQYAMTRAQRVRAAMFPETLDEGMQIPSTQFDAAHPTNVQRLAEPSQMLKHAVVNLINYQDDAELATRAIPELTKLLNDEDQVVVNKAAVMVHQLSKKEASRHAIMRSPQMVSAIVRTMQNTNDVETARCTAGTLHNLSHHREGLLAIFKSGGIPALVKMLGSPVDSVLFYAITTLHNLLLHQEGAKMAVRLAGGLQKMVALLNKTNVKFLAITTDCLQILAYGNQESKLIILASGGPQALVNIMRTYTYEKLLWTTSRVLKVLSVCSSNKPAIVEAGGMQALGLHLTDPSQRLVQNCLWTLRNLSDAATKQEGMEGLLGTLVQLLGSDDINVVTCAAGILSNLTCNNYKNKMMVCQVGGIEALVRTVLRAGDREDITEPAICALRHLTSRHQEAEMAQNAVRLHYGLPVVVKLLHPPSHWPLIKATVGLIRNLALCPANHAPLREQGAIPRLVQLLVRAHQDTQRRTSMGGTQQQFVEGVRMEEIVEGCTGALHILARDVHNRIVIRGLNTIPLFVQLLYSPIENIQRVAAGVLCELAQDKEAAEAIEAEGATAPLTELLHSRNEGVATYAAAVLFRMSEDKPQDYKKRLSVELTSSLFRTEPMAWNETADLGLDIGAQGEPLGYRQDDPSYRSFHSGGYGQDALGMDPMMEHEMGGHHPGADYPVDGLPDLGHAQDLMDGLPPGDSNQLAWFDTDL

full-length beta-catenin [5] = target: T4, full-length beta-catenin; assay: competition FP, grade of FP EC50 (++: 100-500 nM)
Outline: (§2)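 Compound 3-fold serially diluted from 5 µM in Tris pH 8.0, 250 mM NaCl buffer, added to premixed 15 nM full-length β-catenin and 20 nM FITC-labelled stapled axin-site peptide probe. Incubated 15 min in the dark, polarization read in duplicate.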

full-length beta-catenin [6] = target: T4, full-length beta-catenin; assay: competition FP, grade of FP EC50 (+++: <=100 nM)
Outline: as §2

full-length beta-catenin [7] = target: T4, full-length beta-catenin; assay: competition FP, displacement of a labeled probe from the axin site
Method: In some embodiments, a competition fluorescence polarization assay is used to assess binding of provided compounds to beta-catenin. In an exemplary procedure, solutions of provided compounds, e.g., provided stapled peptides, were prepared in a buffer (e.g., 50 mM Tris pH 8.0, 250 mM NaCl, 2% glycerol, 0.5 mM EDTA, 0.02% w/v sodium azide) using a 3-fold serial dilution from 5 µM. Probe solution (15 nM full-length ß-Catenin, 20 nM FITC labeled peptide in buffer) was prepared and incubated for a period of time, e.g., 5 minutes, and the a volume, e.g., 40 µL per well plated in suitable plate, e.g., a black polystyrene 384-well plate (Corning). Equal volume of the serial diluted peptide was added to the plate and incubated protected from light for 15 minutes prior to read. Reads were performed on a Spectramax M5 (Molecular Devices) in duplicate. Suitable probe was FITC-PEG1-PQ-S5-ILD-S5-HVRRVWR (SEQ ID NO: 1) (hydrocarbon staple formed by two S5 via olefin metathesis) and/or FITC-bA-PQ-S5-ILD-S5-HVRRVWR (SEQ ID NO: 3) (hydrocarbon staple formed by two S5 via olefin metathesis). […] Another peptide, FPO217c (Ac-AR_8ILDAHIM$B5$RVW (SEQ ID NO: 280), with N-terminal proline removed and valine replaced with isoleucine compared to FP0025c) was prepared.

CC[C@H](C)[C@@H]1NC(=O)[C@H](Cc2c[nH]cn2)NC(=O)[C@H](C)NC(=O)[C@H](CC(=O)O)NC(=O)[C@H](CC(C)C)NC(=O)[C@H]([C@@H](C)CC)NC(=O)[C@](C)(NC(=O)[C@H](C)NC(C)=O)CCN(C)C(=O)OCC=CCOC(=O)N2CC[C@@](C(=O)N[C@@H](CCCNC(=N)N)C(=O)N[C@H](C(=O)N[C@@H](Cc3c[nH]c4ccccc34)C(N)=O)C(C)C)(C2)NC1=O [FP0597c, Ac-A-MG-I-L-D-A-H-I-MB-R-V-W-NH2] (Ac-A[dαMeDab(Me)]ILDAHI[X1]RVW-NH2; linker 2-9 via X2)
solubility ([1]; Table 2, read-out: Solubility): 98 µM (≈ 158 µg/mL) | solubility thermodynamic ([1]; Table 3 Part A, read-out: Solubility in DPBS): 98 µM (≈ 158 µg/mL) | solubility ([1]; read-out: solubility): 98 µM (≈ 158 µg/mL) | Kd ([2]; Biacore, biotinylated beta-catenin, read-out: Kd): 7 nM | Kd ([2]; Table 2, read-out: Kd by SPR): 4 nM | Kd ([2]; Table 3 Part A, read-out: Binding Kd): 4 nM | EC50 [3]: < 100 nM | plasma half-life compared with FP0217c (Isomer 2) (Plasma PK in rats): shorter

Ac-PEG1-RRWPRS5ILDS5HVRRVWR (SEQ ID NO: 278) ({Ac-PEG1′}-RRWPR[S5]ILD[S5]HVRRVWR; staple 6-10) [StAx-35R, "3 amino acids were added to the N-terminus of the peptide and one other Q→R mutation was made ... the resulting peptide StAx-35R"]
affinity compared to StAx-33 (beta-catenin): reduced

B1: FP0787s (peptide)
peptide: Ac-PQ[S5]ILD[S5]HVRRVWR-NH2
modifications: staple 3-7
SMILES: CC[C@H](C)[C@@H]1NC(=O)[C@@](C)(NC(=O)[C@H](CCC(N)=O)NC(=O)[C@@H]2CCCN2C(C)=O)CCCC=CCCC[C@@](C)(C(=O)N[C@@H](Cc2c[nH]cn2)C(=O)N[C@H](C(=O)N[C@@H](CCCNC(=N)N)C(=O)N[C@@H](CCCNC(=N)N)C(=O)N[C@H](C(=O)N[C@@H](Cc2c[nH]c3ccccc23)C(=O)N[C@@H](CCCNC(=N)N)C(N)=O)C(C)C)C(C)C)NC(=O)[C@H](CC(=O)O)NC(=O)[C@H](CC(C)C)NC1=O
notes: also called S5/S5
EC50 (full-length beta-catenin [4]): ~100 nM | FP EC50 (full-length beta-catenin [5]): 100 to 500 nM

B2: FP0025c (peptide)
peptide: Ac-PA[R8]ILDAHV[MB]RVW-NH2
modifications: staple 3-10
FP EC50 (full-length beta-catenin [6]): ≤ 100 nM | EC50 (full-length beta-catenin [7]): < 100 nM

— US11198713B2, “Agents modulating beta-catenin functions and methods thereof” (FOG PHARMACEUTICALS, INC., priority 2017, dated 2021)
